Results published in patent US20160272992A1, “PROTECTION OF PLANTS AGAINST OXIDATIVE STRESS” (priority 2013, published 2016).

System: Arabidopsis first leaves
Assay: Abaxial epidermal cell number of first leaves of plants grown on HU
Format: in vivo, Arabidopsis thaliana
Details: for reduction in epidermal cell number: grown 3 weeks on 1 mM HU, first leaves
Experimental: The smr5 (SALK_100918) and smr7 (SALK_128496) alleles were acquired from the Arabidopsis Biological Research Center. The atm-1, atr-2 and sog1-1 mutants have been described previously (Garcia et al., 2003; Preuss and Britt, 2003; Culligan et al., 2004; Yoshiyama et al., 2009). Unless stated otherwise, plants of Arabidopsis thaliana (L.) Heyhn (ecotype Columbia), were grown under long-day conditions (16 hours of light, 8 hours of darkness) at 22° C. on half-strength Murashige and Skoog (MS) germination medium (Murashige and Skoog, 1962). Arabidopsis plants were treated with HU as described by Cools et al. (2011). For bleomycin treatments, five-day-old seedlings were transferred into liquid MS medium supplemented with 0.3 μg/mL bleomycin. For γ-irradiation treatments, five-day-old in vitro-grown plantlets were irradiated with γ-rays at a dose of 20 Gy. For light treatments, one-week-old seedlings were transferred to continuous high-light conditions (growth rooms kept at 22° C. with 24-hour day/0-hour night cycles and a light intensity of 300-400 μmol m^−2 s^−1) for 2 days, and subsequently retransferred to low-light conditions. The first leaf pair was harvested and incubated in 100% ethanol for epidermis cell drawing as described by De Veylder et al. (2001).
For leaf measurements, first leaves were harvested at 21 days after sowing on control medium, medium supplemented with 1 mM hydroxyurea or 0.3 μg/mL bleomycin. […] The total (blade) area was determined from images digitized directly with a digital camera (Olympus BX51 microscope) mounted on a binocular (Stemi SV 11; Zeiss). From scanned drawing-tube images of the outlines of at least 30 cells of the abaxial epidermis located between 25% to 75% of the distance between the tip and the base of the leaf, halfway between the midrib and the leaf margin, the following parameters were determined: total area of all cells in the drawing and total numbers of pavement and guard cells, from which the average cell area was calculated. […] For confocal microscopy, root meristems were analyzed 2 days after transfer using a Zeiss LSM 510 Laser Scanning Microscope and the LSM Browser version 4.2 software (Zeiss). […] GFP fluorescence was detected with the 488-nm line of an Argon laser. GFP and PI were detected simultaneously by combining the settings indicated above in the sequential scanning facility of the microscope. Acquired images were quantitatively analyzed with the ImageJ v1.45s software (on the World Wide Web at rsbweb.nih.gov/ij/) and Cell-o-Tape plug-ins (French et al., 2012). Chlorophyll a fluorescence parameters were measured using the IMAGING PAM M-Series Chlorofyll Fluorescence (Walz) and associated software. […]

Compound: NC(=O)NO [HU, hydroxyurea]
- reduction in leaf size and cell number (SMR5^KO SMR7^KO double mutant, 1 mM HU, compared with single knockouts): even less
- reduction in epidermal cell number (SMR5^KO plants): 29%
- reduction in epidermal cell number (SMR7^KO plants): 30%
- reduction in epidermal cell number (control plants (Col-0)): 47%
